# Data from PubChem BioAssay (NCI).
#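 In this assay, cells in 96-well plates receive the compound at five concentrations for 48 hours. Endpoints are linearly interpolated between the surrounding concentrations. GI50 marks 50% less growth. The concentration for full growth arrest is given as TGI.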
# Tests used:
# Experiment in all cases: NCI-60 cell line screen, 48 h
# ACHN renal = test system: ACHN renal
# PC-3 prostate = test system: PC-3 prostate
# MDA-N = test system: MDA-N
# TK-10 renal = test system: TK-10 renal
# NCI-H226 lung = test system: NCI-H226 lung
# RXF 393 renal = test system: RXF 393 renal
# SNB-75 CNS = test system: SNB-75 CNS
# MDA-MB-435 = test system: MDA-MB-435
# 786-0 renal = test system: 786-0 renal
# SK-MEL-5 melanoma = test system: SK-MEL-5 melanoma
# MDA-MB-231 breast = test system: MDA-MB-231 breast
# A498 renal = test system: A498 renal
# UACC-257 melanoma = test system: UACC-257 melanoma
# NCI-H460 lung = test system: NCI-H460 lung
# OVCAR-4 ovarian = test system: OVCAR-4 ovarian
# RPMI-8226 leukemia = test system: RPMI-8226 leukemia
# MOLT-4 leukemia = test system: MOLT-4 leukemia
# SK-MEL-28 melanoma = test system: SK-MEL-28 melanoma
# UACC-62 melanoma = test system: UACC-62 melanoma
# HL-60(TB) leukemia = test system: HL-60(TB) leukemia
# COLO 205 colon = test system: COLO 205 colon
# HCT-116 colon = test system: HCT-116 colon
# HOP-62 NSCLC = test system: HOP-62 NSCLC
# MCF7 breast = test system: MCF7 breast
# T-47D breast = test system: T-47D breast
# CAKI-1 renal = test system: CAKI-1 renal
# SN12C renal = test system: SN12C renal
# U251 CNS = test system: U251 CNS
# CCRF-CEM leukemia = test system: CCRF-CEM leukemia
# UO-31 renal = test system: UO-31 renal
# OVCAR-3 ovarian = test system: OVCAR-3 ovarian
# SNB-19 CNS = test system: SNB-19 CNS
# KM12 colon = test system: KM12 colon
# M14 melanoma = test system: M14 melanoma
# SK-MEL-2 melanoma = test system: SK-MEL-2 melanoma
# HCC-2998 colon = test system: HCC-2998 colon
# K-562 leukemia = test system: K-562 leukemia
# SF-295 CNS = test system: SF-295 CNS
# DU-145 prostate = test system: DU-145 prostate
# SW-620 colon = test system: SW-620 colon
# SK-OV-3 ovarian = test system: SK-OV-3 ovarian
# A549 NSCLC = test system: A549 NSCLC
# OVCAR-5 ovarian = test system: OVCAR-5 ovarian
# HOP-92 NSCLC = test system: HOP-92 NSCLC
# HT29 colon = test system: HT29 colon
# NCI-H23 lung = test system: NCI-H23 lung
# NCI-H522 lung = test system: NCI-H522 lung
# MALME-3M melanoma = test system: MALME-3M melanoma
# SR leukemia = test system: SR leukemia
# HS 578T breast = test system: HS 578T breast
# OVCAR-8 ovarian = test system: OVCAR-8 ovarian
# NCI/ADR-RES ovarian = test system: NCI/ADR-RES ovarian
# IGROV1 ovarian = test system: IGROV1 ovarian
# SF-539 CNS = test system: SF-539 CNS
# HCT-15 colon = test system: HCT-15 colon
# BT-549 breast = test system: BT-549 breast
# EKVX NSCLC = test system: EKVX NSCLC
# LOX IMVI melanoma = test system: LOX IMVI melanoma
# SF-268 CNS = test system: SF-268 CNS
smiles,measurement,setting,value
COC(=O)C1=C2SCc3cccc(c3)CSC3=C(C(=O)OC)SC(=C(S2)S1)S3,TGI,ACHN renal,> 100 µM
same,TGI,PC-3 prostate,> 100 µM
same,TGI,MDA-N,> 100 µM
same,TGI,TK-10 renal,> 100 µM
same,TGI,NCI-H226 lung,> 100 µM
same,TGI,RXF 393 renal,> 100 µM
same,TGI,SNB-75 CNS,> 100 µM
same,TGI,MDA-MB-435,> 100 µM
same,TGI,786-0 renal,> 100 µM
same,TGI,SK-MEL-5 melanoma,> 100 µM
same,TGI,MDA-MB-231 breast,74.9 µM
same,TGI,A498 renal,> 100 µM
same,TGI,UACC-257 melanoma,> 100 µM
same,TGI,NCI-H460 lung,> 100 µM
same,TGI,OVCAR-4 ovarian,> 100 µM
same,TGI,RPMI-8226 leukemia,> 100 µM
same,TGI,MOLT-4 leukemia,> 100 µM
same,TGI,SK-MEL-28 melanoma,> 100 µM
same,TGI,UACC-62 melanoma,> 100 µM
same,TGI,HL-60(TB) leukemia,80.9 µM
same,TGI,COLO 205 colon,> 100 µM
same,TGI,HCT-116 colon,> 100 µM
same,TGI,HOP-62 NSCLC,> 100 µM
same,TGI,MCF7 breast,> 100 µM
same,TGI,T-47D breast,> 100 µM
same,TGI,CAKI-1 renal,> 100 µM
same,TGI,SN12C renal,> 100 µM
same,TGI,U251 CNS,> 100 µM
same,TGI,CCRF-CEM leukemia,> 100 µM
same,TGI,UO-31 renal,> 100 µM
same,TGI,OVCAR-3 ovarian,> 100 µM
same,TGI,SNB-19 CNS,> 100 µM
same,TGI,KM12 colon,> 100 µM
same,TGI,M14 melanoma,> 100 µM
same,TGI,SK-MEL-2 melanoma,> 100 µM
same,TGI,HCC-2998 colon,> 100 µM
same,TGI,K-562 leukemia,> 100 µM
same,TGI,SF-295 CNS,> 100 µM
same,TGI,DU-145 prostate,> 100 µM
same,TGI,SW-620 colon,> 100 µM
same,TGI,SK-OV-3 ovarian,> 100 µM
same,TGI,A549 NSCLC,> 100 µM
O=c1[nH]/c(=C/c2ccc(OCc3ccccc3)cn2)c(=O)[nH]/c1=C/c1ccc(O)cc1,TGI,ACHN renal,> 100 µM
same,TGI,PC-3 prostate,> 100 µM
same,TGI,MDA-N,0.591 µM
same,TGI,TK-10 renal,3.03 µM
same,TGI,OVCAR-5 ovarian,> 100 µM
same,TGI,NCI-H226 lung,> 100 µM
same,TGI,RXF 393 renal,7.38 µM
same,TGI,HOP-92 NSCLC,> 77.6 µM
same,TGI,HT29 colon,> 100 µM
same,TGI,SNB-75 CNS,3.05 µM
same,TGI,NCI-H23 lung,5.44 µM
same,TGI,MDA-MB-435,1.64 µM
same,TGI,NCI-H522 lung,0.806 µM
same,TGI,786-0 renal,1.45 µM
same,TGI,MALME-3M melanoma,8.67 µM
same,TGI,SK-MEL-5 melanoma,20.8 µM
same,TGI,MDA-MB-231 breast,> 100 µM
same,TGI,A498 renal,> 76.7 µM
same,TGI,SR leukemia,4.88 µM
same,TGI,UACC-257 melanoma,> 100 µM
same,TGI,NCI-H460 lung,> 100 µM
same,TGI,HS 578T breast,> 100 µM
same,TGI,OVCAR-8 ovarian,> 32.4 µM
same,TGI,OVCAR-4 ovarian,0.59 µM
same,TGI,RPMI-8226 leukemia,9.95 µM
same,TGI,MOLT-4 leukemia,1.65 µM
same,TGI,NCI/ADR-RES ovarian,2.09 µM
same,TGI,IGROV1 ovarian,13.4 µM
same,TGI,SK-MEL-28 melanoma,> 100 µM
same,TGI,UACC-62 melanoma,> 100 µM
same,TGI,HL-60(TB) leukemia,2.87 µM
same,TGI,COLO 205 colon,10.3 µM
same,TGI,HCT-116 colon,> 69.6 µM
same,TGI,HOP-62 NSCLC,> 100 µM
same,TGI,MCF7 breast,> 100 µM
same,TGI,T-47D breast,> 63.8 µM
same,TGI,CAKI-1 renal,3.08 µM
same,TGI,SF-539 CNS,2.09 µM
same,TGI,HCT-15 colon,> 100 µM
same,TGI,SN12C renal,8.9 µM
same,TGI,U251 CNS,> 87.9 µM
same,TGI,BT-549 breast,8.63 µM
same,TGI,CCRF-CEM leukemia,> 100 µM
same,TGI,UO-31 renal,1.4 µM
same,TGI,OVCAR-3 ovarian,> 76.3 µM
same,TGI,SNB-19 CNS,> 100 µM
same,TGI,M14 melanoma,3.78 µM
same,TGI,SK-MEL-2 melanoma,> 46 µM
same,TGI,EKVX NSCLC,> 89.1 µM
same,TGI,HCC-2998 colon,5.21 µM
same,TGI,LOX IMVI melanoma,1.26 µM
same,TGI,K-562 leukemia,> 100 µM
same,TGI,SF-295 CNS,> 100 µM
same,TGI,SW-620 colon,> 100 µM
same,TGI,SK-OV-3 ovarian,> 100 µM
same,TGI,A549 NSCLC,> 53.5 µM
C=C1C(=O)O[C@H]2/C=C(/C)C3=CC(=O)[C@@](C)(C[C@@H](OC(=O)/C(C)=C\C)C12)O3 (stereo partly specified),TGI,ACHN renal,0.958 µM
same,TGI,PC-3 prostate,8.78 µM
same,TGI,MDA-N,6.24 µM
same,TGI,TK-10 renal,1.6 µM
same,TGI,OVCAR-5 ovarian,6.19 µM
same,TGI,NCI-H226 lung,11.1 µM
same,TGI,RXF 393 renal,1.5 µM
same,TGI,HOP-92 NSCLC,2.07 µM
same,TGI,HT29 colon,1.21 µM
same,TGI,SNB-75 CNS,23.9 µM
same,TGI,NCI-H23 lung,10.3 µM
same,TGI,MDA-MB-435,6.02 µM
same,TGI,NCI-H522 lung,0.605 µM
same,TGI,786-0 renal,2.22 µM
same,TGI,SK-MEL-5 melanoma,> 35.3 µM
same,TGI,MDA-MB-231 breast,11.5 µM
same,TGI,A498 renal,> 41.4 µM
same,TGI,UACC-257 melanoma,5.69 µM
same,TGI,NCI-H460 lung,11.8 µM
same,TGI,HS 578T breast,57.1 µM
same,TGI,OVCAR-8 ovarian,3.94 µM
same,TGI,OVCAR-4 ovarian,> 26.5 µM
same,TGI,MOLT-4 leukemia,6.01 µM
same,TGI,IGROV1 ovarian,4.97 µM
same,TGI,UACC-62 melanoma,3.36 µM
same,TGI,HCT-116 colon,1.11 µM
same,TGI,HOP-62 NSCLC,> 100 µM
same,TGI,CAKI-1 renal,0.432 µM
same,TGI,SF-539 CNS,8.22 µM
same,TGI,HCT-15 colon,1.45 µM
same,TGI,SN12C renal,3.37 µM
same,TGI,U251 CNS,9.48 µM
same,TGI,BT-549 breast,3.11 µM
same,TGI,UO-31 renal,3.56 µM
same,GI50,OVCAR-3 ovarian,1.24 µM
same,TGI,OVCAR-3 ovarian,5.04 µM
same,TGI,SNB-19 CNS,29.7 µM
same,TGI,KM12 colon,9.5 µM
same,TGI,M14 melanoma,> 28.8 µM
same,TGI,SK-MEL-2 melanoma,16.6 µM
same,TGI,EKVX NSCLC,6.23 µM
same,TGI,HCC-2998 colon,3.28 µM
same,TGI,SF-268 CNS,> 46.5 µM
same,TGI,LOX IMVI melanoma,1.14 µM
same,TGI,K-562 leukemia,1.84 µM
same,TGI,SF-295 CNS,29.3 µM
same,TGI,DU-145 prostate,8.99 µM
same,TGI,SK-OV-3 ovarian,26 µM
same,TGI,A549 NSCLC,17.8 µM
O=C1CCCCC(=O)OC2(CCCCC2=O)CC1 (stereo unspecified),TGI,ACHN renal,> 100 µM
same,TGI,PC-3 prostate,> 100 µM
same,TGI,MDA-N,> 100 µM
same,TGI,TK-10 renal,> 100 µM
same,TGI,OVCAR-5 ovarian,> 100 µM
same,TGI,NCI-H226 lung,> 100 µM
same,TGI,RXF 393 renal,> 100 µM
same,TGI,HOP-92 NSCLC,> 100 µM
same,TGI,HT29 colon,> 100 µM
same,TGI,SNB-75 CNS,> 100 µM
same,TGI,NCI-H23 lung,> 100 µM
same,TGI,MDA-MB-435,> 100 µM
same,TGI,NCI-H522 lung,> 100 µM
same,TGI,786-0 renal,> 100 µM
same,TGI,MALME-3M melanoma,> 100 µM
same,TGI,SK-MEL-5 melanoma,> 100 µM
same,TGI,MDA-MB-231 breast,> 100 µM
same,TGI,A498 renal,> 100 µM
same,TGI,SR leukemia,> 100 µM
same,TGI,UACC-257 melanoma,> 100 µM
same,TGI,NCI-H460 lung,> 100 µM
same,TGI,OVCAR-8 ovarian,> 100 µM
same,TGI,OVCAR-4 ovarian,> 100 µM
same,TGI,RPMI-8226 leukemia,> 100 µM
same,TGI,MOLT-4 leukemia,> 100 µM
same,TGI,NCI/ADR-RES ovarian,> 100 µM
same,TGI,IGROV1 ovarian,> 100 µM
same,TGI,SK-MEL-28 melanoma,> 100 µM
same,TGI,UACC-62 melanoma,> 100 µM
same,TGI,COLO 205 colon,> 100 µM
same,TGI,HCT-116 colon,> 100 µM
same,TGI,HOP-62 NSCLC,> 100 µM
same,TGI,MCF7 breast,> 100 µM
same,TGI,T-47D breast,> 100 µM
same,TGI,CAKI-1 renal,> 100 µM
same,TGI,SF-539 CNS,> 100 µM
same,TGI,HCT-15 colon,> 100 µM
same,TGI,SN12C renal,> 100 µM
same,TGI,U251 CNS,> 100 µM
same,TGI,BT-549 breast,> 100 µM
same,TGI,CCRF-CEM leukemia,> 100 µM
same,TGI,UO-31 renal,> 100 µM
same,TGI,OVCAR-3 ovarian,> 100 µM
same,TGI,KM12 colon,> 100 µM
same,TGI,M14 melanoma,> 100 µM
same,TGI,SK-MEL-2 melanoma,> 100 µM
same,TGI,HCC-2998 colon,> 100 µM
same,TGI,SF-268 CNS,> 100 µM
same,TGI,K-562 leukemia,> 100 µM
same,TGI,SF-295 CNS,> 100 µM
same,TGI,DU-145 prostate,> 100 µM
same,TGI,SW-620 colon,> 100 µM
same,TGI,SK-OV-3 ovarian,> 100 µM
same,TGI,A549 NSCLC,> 100 µM
